Consider 20 compounds from PubChem BioAssay (NCI).

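The compound was tested at five concentrations on cells cultured in 96-well plates, with a 48-hour exposure period. The concentration for 50% growth inhibition is given as GI50. TGI denotes the concentration required for complete inhibition of growth.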

Test systems include ACHN renal; CAKI-1 renal; M14 melanoma; MDA-MB-231 breast; NCI-H460 lung; SF-539 CNS; SK-MEL-2 melanoma; SNB-19 CNS; SW-620 colon; T-47D breast.
Common to all, as to assay: growth of human tumour cells (NCI), 48 h

In the case of `CN(Cc1cnc2nc(N)nc(N)c2n1)c1ccc(C(=O)NCCCC(=O)O)cc1`, the TGI with ACHN renal was over 71.2 µM; in the experiment with CAKI-1 renal, over 100 µM; with M14 melanoma, over 100 µM; in the experiment with MDA-MB-231 breast it was over 100 µM; with NCI-H460 lung, over 100 µM; in the experiment with SF-539 CNS, over 100 µM. Besides, the TGI in the experiment with SK-MEL-2 melanoma, in the experiment on SNB-19 CNS, in the experiment with SW-620 colon and in the experiment with T-47D breast was over 100 µM throughout.
Turning to `C#CCNC(=O)CC[C@@H](C)[C@H]1CC[C@H]2[C@@H]3CC[C@@H]4CC(=O)CC[C@]4(C)[C@H]3CC[C@]12C`, the GI50 with ACHN renal is 14.9 µM; in the experiment on CAKI-1 renal, 12.8 µM; in the experiment on M14 melanoma, 14.6 µM; with MDA-MB-231 breast, 16.5 µM; with NCI-H460 lung it was 22 µM; in the experiment with SF-539 CNS, 14.1 µM. For the same compound, the GI50 with SK-MEL-2 melanoma is 16.9 µM; in the experiment on SNB-19 CNS, 24.3 µM; in the experiment on SW-620 colon, 17.8 µM; in the experiment on T-47D breast it was 8 µM. The TGI in the experiment on ACHN renal was 32.4 µM; in the experiment on CAKI-1 renal, 29.2 µM; in the experiment on M14 melanoma it was 37.2 µM; with MDA-MB-231 breast it was 38.9 µM; in the experiment with NCI-H460 lung, 51.2 µM; with SF-539 CNS, 30.4 µM. The TGI was found to be 35.8 µM with SK-MEL-2 melanoma, 71 µM with SNB-19 CNS, 43.7 µM in the experiment with SW-620 colon and 68.2 µM in the experiment with T-47D breast.
For `NS(=O)(=O)c1ccc(NC(=O)c2ccc3nc4ccccc4c(Nc4ccc(S(N)(=O)=O)cc4)c3c2)cc1`, the TGI in the experiment with ACHN renal, in the experiment with CAKI-1 renal, in the experiment on M14 melanoma, with MDA-MB-231 breast, in the experiment with NCI-H460 lung and in the experiment on SF-539 CNS was over 100 µM in each case. The TGI in the experiment with SK-MEL-2 melanoma, with SNB-19 CNS, with SW-620 colon and with T-47D breast was over 100 µM in each case.
As to `COc1ccc(C=O)cc1OS(=O)(=O)C(F)(F)C(F)(F)C(F)(F)C(F)(F)F`, the TGI is over 100 µM in the experiment with ACHN renal; over 100 µM in the experiment with CAKI-1 renal; over 80.5 µM with M14 melanoma; over 70.3 µM with MDA-MB-231 breast; over 93.4 µM with NCI-H460 lung; 41 µM with SF-539 CNS. Also, the TGI is 43.9 µM with SK-MEL-2 melanoma, over 100 µM in the experiment on SNB-19 CNS, over 87.4 µM in the experiment with SW-620 colon and over 100 µM in the experiment with T-47D breast.
Take `Nc1ncnc2c1ccn2-c1cccc(NC(=O)c2ccc(N3CCOCC3)c(C(F)(F)F)c2)c1`: the GI50 is 2.88 µM with ACHN renal; 2.69 µM in the experiment on CAKI-1 renal; 3.33 µM with M14 melanoma; 2.47 µM in the experiment with MDA-MB-231 breast; 2.92 µM with NCI-H460 lung; 2.39 µM in the experiment with SF-539 CNS. Moreover, the GI50 was 1.83 µM in the experiment on SK-MEL-2 melanoma, 3.96 µM with SNB-19 CNS, 4.23 µM with SW-620 colon and 2.66 µM in the experiment on T-47D breast. The TGI in the experiment on ACHN renal was determined as 10.5 µM; with CAKI-1 renal, 8.73 µM; in the experiment on M14 melanoma it was 10.6 µM; with MDA-MB-231 breast it was 10.9 µM; with NCI-H460 lung, 9.33 µM; with SF-539 CNS, 15.4 µM. The TGI in the experiment with SK-MEL-2 melanoma came to 5.1 µM; in the experiment on SNB-19 CNS, 13 µM; in the experiment on SW-620 colon it was 17.8 µM; with T-47D breast it was 7.92 µM.
For the compound `CCOc1cc2c(cc1O)C(=O)C[C@@H]1[C@@H]2CC[C@]2(C)[C@@H](O)CC[C@@H]12`, the TGI is over 100 µM in the experiment with ACHN renal; over 100 µM in the experiment on CAKI-1 renal; over 38.9 µM in the experiment with M14 melanoma; 61.8 µM in the experiment with MDA-MB-231 breast; 12.4 µM in the experiment with NCI-H460 lung; 0.487 µM in the experiment on SF-539 CNS. In addition, the TGI in the experiment with SK-MEL-2 melanoma is over 58.1 µM; in the experiment with SNB-19 CNS, over 55.2 µM; in the experiment on SW-620 colon, over 100 µM; in the experiment with T-47D breast, over 100 µM.
`C=C(C)COc1cc(NC(=S)OC(C)C)ccc1Cl`: the TGI with ACHN renal was found to be 31.1 µM; with CAKI-1 renal, 28.7 µM; with M14 melanoma, 31.7 µM; in the experiment with MDA-MB-231 breast, 29.5 µM; with NCI-H460 lung, 30.8 µM; with SF-539 CNS, 30 µM. Besides, the TGI with SK-MEL-2 melanoma was found to be 27.2 µM; in the experiment on SNB-19 CNS it was 33.4 µM; in the experiment on SW-620 colon, 27.6 µM; in the experiment with T-47D breast it was 26.8 µM.
On to `COc1cc(N(CCCl)CCCl)ccc1/C=N\NC(=O)c1cccnc1`, for which the GI50 in the experiment on ACHN renal was 17 µM; in the experiment with CAKI-1 renal, 9.25 µM; in the experiment with M14 melanoma, 37.5 µM; with MDA-MB-231 breast, 33.8 µM; in the experiment with NCI-H460 lung, 0.403 µM; with SF-539 CNS it was 27.3 µM. Further, the GI50 in the experiment on SK-MEL-2 melanoma is 28 µM; in the experiment on SNB-19 CNS, 52.8 µM; with SW-620 colon, 30.4 µM; in the experiment on T-47D breast, 11.4 µM. Besides, the TGI was over 100 µM in the experiment on ACHN renal; 59.2 µM with CAKI-1 renal; over 100 µM in the experiment on M14 melanoma; over 100 µM in the experiment with MDA-MB-231 breast; 25.4 µM with NCI-H460 lung; over 100 µM with SF-539 CNS. The TGI was 62 µM in the experiment with SK-MEL-2 melanoma, over 100 µM with SNB-19 CNS, over 100 µM in the experiment with SW-620 colon and over 100 µM with T-47D breast.
With `CN1CCN(c2n[nH]c(=O)c3c2nnn3C2CCCCC2)CC1`, the TGI with ACHN renal, in the experiment with CAKI-1 renal, with M14 melanoma, in the experiment on MDA-MB-231 breast, with NCI-H460 lung and in the experiment with SF-539 CNS was over 100 µM throughout. Moreover, the TGI in the experiment on SK-MEL-2 melanoma, in the experiment on SNB-19 CNS, in the experiment with SW-620 colon and with T-47D breast was over 100 µM each time.
Turning to `Nc1ccc(C2SCC(=O)N2NS(=O)(=O)c2cccc(C(=O)O)c2)cc1` (stereo not given), the TGI with ACHN renal, with CAKI-1 renal, in the experiment with M14 melanoma, in the experiment on MDA-MB-231 breast, with NCI-H460 lung and in the experiment with SF-539 CNS was over 100 µM throughout. In addition, the TGI in the experiment on SK-MEL-2 melanoma, in the experiment on SNB-19 CNS, in the experiment on SW-620 colon and in the experiment on T-47D breast was over 100 µM each time.
For the compound `CC(C)C(=O)/C=C/c1c(Cl)cccc1Cl`, the TGI with ACHN renal was determined as 16.2 µM; with CAKI-1 renal, 13.8 µM; in the experiment on M14 melanoma, 6.69 µM; in the experiment with MDA-MB-231 breast, 8.94 µM; in the experiment with NCI-H460 lung it was 5.68 µM; with SF-539 CNS, 7.44 µM. The TGI stood at 7.99 µM in the experiment on SK-MEL-2 melanoma, 22.6 µM with SNB-19 CNS, 9.13 µM with SW-620 colon and 9.31 µM in the experiment with T-47D breast.
Regarding `Cn1c(=S)[nH]c(N)c(Cc2ccccc2)c1=O`, the TGI in the experiment with ACHN renal, in the experiment on CAKI-1 renal, in the experiment with M14 melanoma, in the experiment on MDA-MB-231 breast, with NCI-H460 lung and with SF-539 CNS was over 100 µM in each case. The TGI in the experiment with SK-MEL-2 melanoma, with SNB-19 CNS, with SW-620 colon and in the experiment on T-47D breast was over 100 µM in each case.
On to `CC(=O)OCC1OC(O[C@H]2C=C[C@@H](C(=O)OCc3ccccc3)n3c(=O)n(-c4ccccc4)c(=O)n32)C(OC(C)=O)C(OC(C)=O)C1OC(C)=O` (stereo not given in full), for which the TGI in the experiment with ACHN renal was 3.09 µM; in the experiment with CAKI-1 renal it was 2.98 µM; in the experiment with M14 melanoma, 2.95 µM; in the experiment on MDA-MB-231 breast, 4.12 µM; in the experiment on NCI-H460 lung, 3.05 µM; with SF-539 CNS it was 3.21 µM. Besides, the TGI is 10.1 µM in the experiment on SK-MEL-2 melanoma, 30.1 µM in the experiment on SNB-19 CNS, 17 µM with SW-620 colon and 8.33 µM with T-47D breast.
On to `COc1ccc2nc3cc(Cl)ccc3c(NCCCCCC(=O)NC(COc3ccc4ccc5cccnc5c4n3)COc3ccc4ccc5cccnc5c4n3)c2c1`, for which the TGI with ACHN renal was determined as 28.9 µM; in the experiment on CAKI-1 renal it was 95.5 µM; in the experiment with M14 melanoma, 57.7 µM; with MDA-MB-231 breast, 36.2 µM; with NCI-H460 lung, 19.1 µM; with SF-539 CNS, 30.6 µM. Also, the TGI was 45.1 µM in the experiment with SK-MEL-2 melanoma, over 100 µM in the experiment with SNB-19 CNS, 33 µM in the experiment on SW-620 colon and 40.1 µM in the experiment with T-47D breast.
As to `CN(C)CC(C)(C)CN1c2ccccc2Sc2ccccc21`, the TGI with ACHN renal was 28.3 µM; with CAKI-1 renal, 24.7 µM; in the experiment on M14 melanoma, 22.4 µM; with MDA-MB-231 breast, 24.3 µM; in the experiment with NCI-H460 lung, 26.3 µM; in the experiment with SF-539 CNS, 34.3 µM. In addition, the TGI was 28.8 µM with SK-MEL-2 melanoma, 29.5 µM in the experiment with SNB-19 CNS, 28.3 µM with SW-620 colon and 29.3 µM in the experiment with T-47D breast.
Regarding `Cn1c(=O)cc(Nc2ccc(N)cc2)[nH]c1=O`, the TGI in the experiment on ACHN renal, in the experiment with CAKI-1 renal, with M14 melanoma, in the experiment with MDA-MB-231 breast, in the experiment on NCI-H460 lung and in the experiment with SF-539 CNS was over 100 µM each time. For the same compound, the TGI in the experiment on SK-MEL-2 melanoma, with SNB-19 CNS, with SW-620 colon and in the experiment on T-47D breast was over 100 µM each time.
Consider `c1ccc2c(c1)-c1ccccc1C2NC1=NCCO1`, for which the TGI with ACHN renal is over 100 µM; in the experiment with CAKI-1 renal, 80.9 µM; with M14 melanoma, 32.5 µM; with MDA-MB-231 breast, 56 µM; in the experiment on NCI-H460 lung it was 27.1 µM; with SF-539 CNS, 49.6 µM. For the same compound, the TGI is 39.5 µM in the experiment on SK-MEL-2 melanoma, over 100 µM with SNB-19 CNS, over 100 µM with SW-620 colon and over 100 µM in the experiment on T-47D breast.
Regarding `CCCCCCCCCCCCc1ccsc1-c1ccc(-c2ccc(-c3sccc3CCCCCCCCCCCC)s2)s1`, the TGI with ACHN renal, in the experiment with CAKI-1 renal, in the experiment on M14 melanoma, with MDA-MB-231 breast, with NCI-H460 lung and in the experiment on SF-539 CNS was over 100 µM in each case. Also, the TGI with SK-MEL-2 melanoma, in the experiment with SNB-19 CNS, with SW-620 colon and with T-47D breast was over 100 µM each time.
Consider `Cc1c(C#N)c2nc3ccccc3n2c(=O)/c1=C/Nc1ccc(Cl)cc1`, for which the TGI is 25 µM with ACHN renal; over 100 µM with CAKI-1 renal; 40.9 µM with M14 melanoma; 77.9 µM in the experiment on MDA-MB-231 breast; over 100 µM with NCI-H460 lung; 30.5 µM with SF-539 CNS. In addition, the TGI with SK-MEL-2 melanoma was 46.6 µM; in the experiment with SNB-19 CNS, 27.9 µM; with SW-620 colon, over 100 µM; in the experiment with T-47D breast, over 100 µM.
Take `O=C(CC(=O)N1N=C(N(c2ccccc2)c2ccccc2)CC1c1ccccc1)Nc1cccc(Cl)c1` (stereo not given): the TGI in the experiment on ACHN renal, in the experiment with CAKI-1 renal, with M14 melanoma, in the experiment with MDA-MB-231 breast, in the experiment with NCI-H460 lung and with SF-539 CNS was over 100 µM in each case. Further, the TGI with SK-MEL-2 melanoma, in the experiment on SNB-19 CNS, with SW-620 colon and in the experiment on T-47D breast was over 100 µM throughout.
